{
  "source": "patent US20100035848A1",
  "about": "“THERAPY FOR DISORDERS OF THE PROXIMAL DIGESTIVE TRACT” (priority 2008, published 2010)",
  "key": {"[1]": {"system": "gastric PGE2", "experiment": "Acute diclofenac-induced gastric toxicity in rats: gastric PGE2 concentration", "type": "in vivo, rat", "conditions": "Group C: GL1001 oral before diclofenac 50 mg/kg; vehicle/vehicle Group A 43.22 ± 12.13", "protocol": "Male Wistar rats were deprived of food but not water for 16 hours prior to oral administration of GL1001 90 mg/kg, incubated for 30 minutes and then given oral diclofenac 50 mg/kg. Each group consisted of 6 rats. As a negative control, one group received vehicle pretreatment, and then received vehicle instead of diclofenac. A positive control group received PGE2 100 μg/kg orally, 30 minutes prior to administration of diclofenac. All treatments were administered by oral gavage.\nThree hours after diclofenac treatment, all animals were sacrificed and stomachs were removed and imaged to determine the severity of gastric damage. Additionally, stomach tissue samples were taken to assess disease activity and pharmacodynamic effects. Gastric damage scores were determined from photographic images (Ma & Wallace (2003) Am. J. Physiol. Gastrointest. Liver Physiol. 279; 341-346). Removed stomachs were opened along the greater curvature, pinned out on a wax block, and photographed along a 25 mm ruler reference with a digital 35 mm camera. The lesion area was then determined using enlarged images and computer software (www.scioncorp.co/pages/scion_image_windows.htm) that allows superimposed drawing of the perimeter of a wound and calculation of the area based on the ruler reference. Stomach samples (excluding forestomach) were used for measurements of PGE2 concentration, MPO activity and ACE2 activity. […] Concentration of PGE2 from stomach tissue samples was performed as described by Souza et al. (2003), supra, and quantification was obtained by LC-MS. […] Last, the extent of inhibition of ACE2 activity was determined to establish whether GL1001 was effective in inhibiting its ACE2 target in stomach tissues. The ACE2 activity assay is similar to the method of Vickers et al. (2002) J. Biol. Chem. 277:14838-14843, wherein purified recombinant ACE2 (100 pM) and a quenched fluorescent substrate (100-150 μM APK (7-methoxycoumarin-4-yl)acetyl-Ala-Pro-Lys (2,4-dinitrophenyl)) are used in end-point fluorescence reactions (excitation 320 nm, emission 405 nm). […]\nData are expressed as means with standard errors. […]"}, "[2]": {"system": "LPS-induced NF-κB-dependent transcription", "experiment": "Luciferase assay of organs extracted from LPS-treated NF-κB::Luc mice", "type": "in vivo, mouse", "source_text": "For luciferase assays, organs were extracted and snap-frozen in liquid nitrogen. All tissue samples were placed in lysis buffer with inhibitors (Passive Lysis Buffer (Promega) and Complete Mini Protease Inhibitor Cocktail (Roche, Indianapolis, Ind.)), and were homogenized using a Handishear hand-held tissue homogenizer (VirTis, Gardiner, N.Y.). Tissue homogenates were centrifuged and clarified lysates were used for luminometer assays and western blots. For the luminometer assays, Luciferase Assay Substrate (Luciferase Assay System, Promega) was prepared as indicated by the manufacturer and placed in disposable cuvettes. […] Background luminescence readings were obtained and the background readings were subtracted from the luminescent data. Protein concentrations were determined using the BCA Protein Assay Kit (Pierce, Rockford, Ill.) following the manufacturer's protocols and analyzed using a VERSAmax tunable microplate reader and associated Softmax Pro version 3.1.2 software (Molecular Devices, Sunnyvale Calif.). The luminescence for each of the protein lysates was calculated as arbitrary units of light per microgram of protein. […]\nGL1001 was further tested for in vivo anti-inflammatory activity by examining its effects on bacterial LPS-induced NF-κB dependent transcription in NF-κB::Luc mice. […] Luciferase signal was quantitated from several regions of interest. […]"}},
  "data": [
    {"smiles": "CC(C)C[C@H](N[C@@H](Cc1cncn1Cc1cc(Cl)cc(Cl)c1)C(=O)O)C(=O)O", "note": "[GL1001, (S,S)-2-[1-carboxy-2-[3-(3,5-dichlorobenzyl)-3H-imidazol-4-yl]-ethylamino]-4-methylpentanoic acid]", "values": [
      {"measurement": "Gastric PGE2 concentration", "setting": "[1]", "value": 0, "unit": "pg/mg"},
      {"measurement": "reduction of LPS-induced NF-κB-dependent transcription in stomachs", "setting": "[2]; 0.5 mg/kg LPS and GL1001 30 mg/kg vs LPS alone, FIG. 5", "value": "about 37 fold"},
      {"measurement": "decrease in LPS-induced NF-κB signaling in other organs", "setting": "[2]; 0.5 mg/kg LPS and GL1001 30 mg/kg, pancreas, uterus, liver, kidney, spleen, small and large intestine, lymph nodes, cecum, ovary, brain, heart, lung", "value": "no statistically significant decrease"}
    ]}
  ]
}
